The source of these data is patent publication US10792272B2, “Methods for treatment of Clostridium difficile infections” (priority 2016, dated 2020).

The test system of data set [1] is C. difficile 4118 (CD4118, ATCC BAA-1870, BI/NAP1/027). In words: MIC by broth microdilution against C. difficile 4118. It is filed as cell-based, Clostridium difficile. Particulars: Clostridioides difficile. A general note: In broth dilution the organism is exposed to a series of concentrations in liquid medium.
The subject of a further data set is S. aureus RN4220. In words: MIC against aerobic bacteria. The format is cell-based. Particulars: Staphylococcus aureus.
The subject of a further data set is C. sporogenes ATCC 15579. In words: microbe, parasite or virus in culture. It is filed as cell-based, Clostridium sporogenes. Particulars: Clostridium sporogenes, ATCC15579, read-out: MIC C. sporogenes ATCC 15579.
Data set [2] relates to B. thetaiotaomicron ATCC 29148. The data set can be described thus: microbe, parasite or virus in culture. The format is cell-based. Particulars: Bacteroides thetaiotaomicron, ATCC29148, read-out: MIC B. thetaiotaomicron ATCC 29148.
For data set [3] the following is noted: in vivo; cited from earlier work.
A further data set deals with liver carcinoma HepG2. The data set can be described thus: In vitro cytotoxicity MTS assay, HepG2. Particulars: for cell viability HepG2 (MTS): 16 h. A general note: Tetrazolium dyes change colour on reduction, which living cells bring about.
Data set [4] has as its system embryonic kidney HEK 293T/17. In words: In vitro cytotoxicity MTS assay, HEK 293T/17. Particulars: for cell viability HEK 293T/17 (MTS): 16 h.
The subject of data set [5] is Clostridium difficile strain 4118. In words: Minimum bactericidal concentration (MBC), logarithmic- and stationary-phase cells. It is filed as cell-based. Particulars: 3-log reduction of inoculum; for MBC: Clostridioides difficile. As to the method:
The MBClog values of the protonophores were determined to be 0.25-2 μg/mL (˜4 to 8-fold greater than their respective MIC values).
Clostridium difficile strain 4118 was grown to OD600˜0.4-0.5 (logarithmic phase) or for 24 h (stationary phase), and thereafter added to two-fold serial dilutions of test compounds. Cultures were incubated for 20-24 h at 37° C., and then viable counts were enumerated on BHIS agar plates. […] MBC measurements were performed in duplicate.

A further data set has as its system B. subtilis ATCC 6051. The data set can be described thus: MIC against aerobic bacteria. It is filed as cell-based, Bacillus subtilis. Particulars: Bacillus subtilis, ATCC6051, read-out: MIC B. subtilis ATCC 6051.
In another data set the test system is S. epidermidis 1457. The data set can be described thus: MIC against aerobic bacteria. It is filed as cell-based. Particulars: Staphylococcus epidermidis, 1457, read-out: MIC S. epidermidis 1457.
Another data set relates to A. baumannii M2. The data set can be described thus: MIC against aerobic bacteria. It is filed as cell-based. Particulars: Acinetobacter baumannii, M2, read-out: MIC A. baumannii M2.
In a further data set the test system is P. aeruginosa PAO1. The data set can be described thus: MIC against aerobic bacteria. Particulars: Pseudomonas aeruginosa, PAO1, read-out: MIC P. aeruginosa PAO1. The format is cell-based, Pseudomonas aeruginosa.
For data set [6], the system named is C. clostridioforme ATCC 25537. The data set can be described thus: MIC against anaerobic bacteria. It is filed as cell-based, Clostridium clostridioforme. Particulars: Clostridium, ATCC25537, read-out: MIC C. clostridioforme ATCC 25537.
Another data set concerns P. distasonis ATCC 8503. The data set can be described thus: MIC against anaerobic bacteria. The format is cell-based, Parabacteroides distasonis. Particulars: Parabacteroides distasonis, ATCC8503, read-out: MIC P. distasonis ATCC 8503.
For the next data set, the system named is P. nigrescens ATCC 33563. The data set can be described thus: MIC against anaerobic bacteria. The format is cell-based, Prevotella nigrescens. Particulars: Prevotella nigrescens, ATCC33563, read-out: MIC P. nigrescens ATCC 33563.
In a further data set the test system is sheep erythrocytes. The data set can be described thus: Hemolysis assay. Particulars: tested at 32 μg/mL; 37° C., 1 h.
The subject of data set [7] is C. difficile 630 (CD630, ATCC BAA-1382). The data set can be described thus: MIC by broth microdilution against C. difficile 630. It is filed as cell-based, Clostridium difficile. Particulars: Clostridioides difficile, ATCCBAA1382; 20-24 h, 37° C.
Data set [8] relates to C. difficile strains 630 (CD630) and 4118 (CD4118). In words: MIC / growth inhibition against C. difficile, covering both strains. It is filed as cell-based, Clostridium difficile. Particulars: Clostridioides difficile, read-out: MIC against C. difficile.
For data set [9], the system named is panel of aerobic and anaerobic organisms. The format is cell-based.
[10] abbreviates: ATCCBAA1870, Table 1, strain 4118, 20-24 h, 37° C., read-out: MIC C. difficile 4118.
Setting [11] is: RN4220, aerobic, read-out: MIC S. aureus RN4220.
Setting [12] is: logarithmic-phase cells of strain 4118, read-out: MBClog.
[13] abbreviates: stationary-phase cells of strain 4118, read-out: MBCstat.

Converted amounts (≈) assume the structure as drawn. Read-outs that look alike come from different tables or passages of the source.

Procedure for sheep erythrocytes: Sheep red blood cells (Innovative Research, Novi, Mich., USA) were washed three times with PBS pH 7.4. A 3% cell suspension in PBS (100 μL) was added to test compounds in PBS (100 μL), and then incubated at 37° C. for 1 h. The plate was centrifuged at 500×g for 10 min, and supernatants (100 μL) were transferred to a clean 96-well plate. Hemolysis was determined by measuring absorbance at 540 nm, with 1% Triton X-100 as the positive control and 0.5% DMSO in PBS as the negative control. Hemolysis assays were performed in triplicate.

In the case of `Cc1cc(C(C#N)c2ccc(Cl)cc2)c(Cl)cc1NC(=O)c1cc(I)cc(I)c1O` (stereo not drawn) [Closantel, reference compound], the MIC is 0.25 µg/mL (≈ 0.377 µM) in data set [1] (setting [10]), 0.25 µg/mL (≈ 0.377 µM) in the data set with S. aureus RN4220 (setting [11]), 1 µg/mL (≈ 1.51 µM) with C. sporogenes ATCC 15579 and over 32 µg/mL in data set [2]. The “excreted unchanged in the feces” value in [3] is recorded as at most 90%.
Take `O=C(Nc1ccc([N+](=O)[O-])cc1Cl)c1cc(Cl)ccc1O` [Niclosamide, niclosamide]: in data set [1] (setting [10]), the MIC was 4 µg/mL (≈ 12.2 µM). In addition, the “cell viability HepG2 (MTS)” value in the data set on liver carcinoma HepG2 (0.125 μg/mL) is on record as “significant decrease in viability”. Further, the “cell viability HEK 293T/17 (MTS)” value in [4] (0.125 μg/mL) is listed as “significant decrease in viability”.
On to `O=C(Nc1ccc(Oc2ccc(Cl)cc2)c(Cl)c1)c1cc(I)cc(I)c1O` [Rafoxanide, rafoxanide, reference compound], for which the MIC was 0.13 µg/mL (≈ 0.208 µM) in [1] (ATCCBAA1870); 0.13 µg/mL (≈ 0.208 µM) in [1] (ATCCBAA1870, read-out: MIC C. difficile 4118); at most 0.03 µg/mL with B. subtilis ATCC 6051; 0.25 µg/mL (≈ 0.399 µM) in the data set with S. aureus RN4220 (setting [11]); at most 0.03 µg/mL in the data set on S. epidermidis 1457; over 32 µg/mL in the data set with A. baumannii M2. In addition, the MIC with P. aeruginosa PAO1 was over 32 µg/mL; with C. sporogenes ATCC 15579 it was 1 µg/mL (≈ 1.6 µM); in data set [6], 1 µg/mL (≈ 1.6 µM); in data set [2], over 32 µg/mL; with P. distasonis ATCC 8503, 8 µg/mL (≈ 12.8 µM); with P. nigrescens ATCC 33563 it was 8 µg/mL (≈ 12.8 µM). Further, the values for the MBC in data set [5] (setting [12]) and in data set [5] (setting [13]) were 0.5 µg/mL (≈ 0.799 µM) and 1 µg/mL (≈ 1.6 µM), respectively. In addition, the “rupture of red blood cells (hemolysis)” value in the data set on sheep erythrocytes was “did not cause rupture of red blood cells”. For the same compound, in the data set on liver carcinoma HepG2 (8 μg/mL), the “cell viability HepG2 (MTS)” value is “no apparent effect on mammalian cell viability”. The “in vitro toxicity toward HepG2 compared with niclosamide” value in the data set with liver carcinoma HepG2 (relative to niclosamide) is listed as “comparably lower in vitro toxicities”. Further, the “cell viability HEK 293T/17 (MTS)” value in [4] (8 μg/mL) is listed as “no apparent effect on mammalian cell viability”. The “in vitro toxicity toward HEK 293T/17 compared with niclosamide” value in data set [4] (relative to niclosamide) was “comparably lower in vitro toxicities”.
In the case of `CN[C@H](CC(C)C)C(=O)N[C@H]1C(=O)N[C@@H](CC(N)=O)C(=O)N[C@H]2C(=O)N[C@H]3C(=O)N[C@H](C(=O)N[C@H](C(=O)O)c4cc(O)cc(O)c4-c4cc3ccc4O)[C@H](O)c3ccc(c(Cl)c3)Oc3cc2cc(c3O[C@@H]2O[C@H](CO)[C@@H](O)[C@H](O)[C@H]2O[C@H]2C[C@](C)(N)[C@H](O)[C@H](C)O2)Oc2ccc(cc2Cl)[C@H]1O` [Vancomycin, vancomycin, reference compound], the MIC is 1 µg/mL (≈ 0.69 µM) in data set [7]; 2 µg/mL (≈ 1.38 µM) in data set [1] (ATCCBAA1870); 2 µg/mL (≈ 1.38 µM) in data set [1] (ATCCBAA1870, 20-24 h, 37° C., read-out: MIC C. difficile 4118); 0.13 µg/mL (≈ 0.0897 µM) in the data set with B. subtilis ATCC 6051; 1 µg/mL (≈ 0.69 µM) in the data set with S. aureus RN4220 (RN4220, read-out: MIC S. aureus RN4220); 2 µg/mL (≈ 1.38 µM) with S. epidermidis 1457. The MIC was over 32 µg/mL in the data set with A. baumannii M2; over 32 µg/mL in the data set on P. aeruginosa PAO1; 2 µg/mL (≈ 1.38 µM) in the data set on C. sporogenes ATCC 15579; 0.5 µg/mL (≈ 0.345 µM) in data set [6]; over 32 µg/mL in [2]; over 32 µg/mL with P. distasonis ATCC 8503. In addition, the MIC in the data set with P. nigrescens ATCC 33563 is over 32 µg/mL; in data set [8] it was 1 to 2 µg/mL (≈ 0.69 to 1.38 µM). Moreover, the figures for the MBC in [5] (setting [12]) and in data set [5] (setting [13]) were 8 µg/mL (≈ 5.52 µM) and over 32 µg/mL, respectively. Moreover, the MBCstat in data set [5] (stationary-phase cells of strain 4118) is over 32 µg/mL. Also, the “antibacterial spectrum (in words)” value in [9] is “Gram-positive organisms”.
